Source: patent publication US11464763B2, “Parasiticidal compositions comprising an isoxazoline active agent, methods and uses thereof” (BOEHRINGER INGELHEIM ANIMAL HEALTH USA INC., priority 2011, dated 2022)

Tests used:
[1] = Accelerated stability of Cmpd. A in solvents at 50° C.; type: physicochemical
Description: An important aspect of the invention is to provide a multiple-use container comprising a topical composition of the invention, from which accurate single dose aliquots of the long lasting topical formulations may be administered. The formulation must remain stable with repetitive exposure to the outside environment, particularly oxygen and water. This embodiment may be particularly useful with the very long lasting formulations of the invention that require administration to an animal infrequently, such as once every 3-6 months, or similar. Some solvents such as ethers (including DMI, Transcutol® and the like) give rise to peroxides, which then yield ketones and aldehydes that may be further degraded to acids. The presence of acids may contribute to the degradation of acid hydrolysis-susceptible molecules, including isoxazoline active agents. Thus, formulation stability is particularly important for the multi-dose container application, where the formulations can be exposed to oxygen and water during multiple rounds of opening and closing. […]

Haematobia irritans = assay: Pour-on efficacy against Haematobia irritans (horn fly) in cattle (Example 14); type: in vivo; conditions: for % Reduction: Group 2: pour-on 10% in DES, 1 ml/10 kg
Description: The efficacy of a pour-on formulation of the invention comprising isoxazoline Compound A was tested and compared with an untreated control. Two healthy, female Angus crossbread cattle of one year of age weighing between 224 to 330 kg were used in each study group. Cattle in Group 1 were untreated (control) and cattle in Group 2 were treated with a pour-on formulation comprising Compound A at a concentration of 10% (w/v) in DES at a dose of 1 ml/10 kg once on Day 0. The formulation was applied by measuring the required amount of the solution into a marked disposable syringe and applying the material evenly along the mid-line of the back of each animal from the withers to the tail head. Each animal was infested with approximately 200 horn flies released into each of the animal rooms on Day 1, approximately 24 hours post treatment. Approximately 200 horn flies were released again on Days 7, 14, 21, 28 and 36. Horn fly counts were performed at 5 hours and 24 hours after each infestation. Tables 14A and 14B below show the efficacy of the pour-on formulation of the invention.

Amblyomma americanum = assay: Dose characterization of spot-on formulations against Amblyomma americanum ticks in dogs (Example 4); type: in vivo
Description: The efficacy of a spot-on composition of the invention comprising an isoxazoline compound (Cmpd. A) in a carrier vehicle comprising either DES alone or DES+lauryl lactate (LL), against ticks (Amblyomma americanum), in dogs was studied. The compositions contained 3.0%, 4.5%, or 6.0% Cmpd. A in either DES alone or DES+lauryl lactate, which delivered doses of […], respectively, of Cmpd. A to dogs infested with A. Americanum ticks.
Seven Treatment Groups were evaluated. Treatment Group 1 was administered a placebo formulation and served as a control. Treatment Groups 2, 3 and 4 were administered a topical formulation comprising 6.0% (w/v), 4.5% (w/v) and 3.0% (w/v) of Cmpd. A in DES, respectively, corresponding to doses of 4.0 mg/kg, 3.0 mg/kg and 2.0 mg/kg, respectively. Treatment Groups 5, 6 and 7 were administered a topical formulation comprising 6.0% (w/v), 4.5% (w/v) and 3.0% (w/v) of Cmpd. A in DES+9% lauryl lactate, respectively, corresponding to doses of […], 3.0 mg/kg and 2.0 mg/kg body weight Cmpd. A, respectively.
All dogs were treated once topically on Day 0 by parting the hair and applying the solution from a syringe directly onto the skin in a single spot on the midline of the neck between the base of the skull and the shoulder blades.
All dogs were infested with approximately 50 A. americanum on Days −1, 7, 14, 21, 28, 35 and 42. Ticks were counted upon removal on Days 2, 9, 16, 23, 30, 37 and 44. The % reduction of ticks for each Group is presented Table 5 below.

## O=C(CNC(=O)c1ccc(C2=NOC(c3cc(Cl)cc(C(F)(F)F)c3)(C(F)(F)F)C2)c2ccccc12)NCC(F)(F)F (stereo not drawn) [Compound A, 4-[5-[3-chloro-5-(trifluoromethyl)phenyl]-4,5-dihydro-5-(trifluoromethyl)-3-isoxazolyl]-N-[2-oxo-2-[(2,2,2-trifluoroethyl)amino]ethyl]-1-naphthalanecarboxamide]
[1]; 12% (w/v) solution in DMI, eleven week, 50° C., clear glass containers
  change in assay, accelerated stability study: no significant change in assay
[1]; DES, DIPA, DMI, triacetin, GF and propylene carbonate, 50° C. in glass bottles
  stability in solvents: stable
Haematobia irritans; 24 hours after infestation through the end of the study (day 36)
  Efficacy against horn flies: at least 90%
Haematobia irritans; Day 1 (5 h)
  % Reduction: 81.2%
Haematobia irritans; Day 2 (24 h)
  % Reduction: 99.6%
Haematobia irritans; Day 7 (5 h)
  % Reduction: 84.2%
Haematobia irritans; Day 8 (24 h)
  % Reduction: 99.7%
Haematobia irritans; Day 14 (5 h)
  % Reduction: 89.5%
Haematobia irritans; Day 15 (24 h)
  % Reduction: 99.2%
Haematobia irritans; Day 21 (5 h)
  % Reduction: 67.6%
Haematobia irritans; Day 22 (24 h)
  % Reduction: 97.4%
Haematobia irritans; Day 28 (5 h)
  % Reduction: 11.7%
Haematobia irritans; Day 29 (24 h)
  % Reduction: 90.4%
Amblyomma americanum; Group 2: 6.0% in DES, 4.0 mg/kg, Day 2
  % Reduction Ticks: 97.4%
Amblyomma americanum; Group 2: 6.0% in DES, 4.0 mg/kg, Day 9
  % Reduction Ticks: 100.0%
Amblyomma americanum; Group 2: 6.0% in DES, 4.0 mg/kg, Day 16
  % Reduction Ticks: 100.0%
Amblyomma americanum; Group 2: 6.0% in DES, 4.0 mg/kg, Day 23
  % Reduction Ticks: 100.0%
Amblyomma americanum; Group 2: 6.0% in DES, 4.0 mg/kg, Day 30
  % Reduction Ticks: 82.5%
Amblyomma americanum; Group 2: 6.0% in DES, 4.0 mg/kg, Day 37
  % Reduction Ticks: 97.9%
Amblyomma americanum; Group 2: 6.0% in DES, 4.0 mg/kg, Day 44
  % Reduction Ticks: 84.2%
Amblyomma americanum; Group 3: 4.5% in DES, 3.0 mg/kg, Day 2
  % Reduction Ticks: 90.0%
Amblyomma americanum; Group 3: 4.5% in DES, 3.0 mg/kg, Day 9
  % Reduction Ticks: 100.0%
Amblyomma americanum; Group 3: 4.5% in DES, 3.0 mg/kg, Day 16
  % Reduction Ticks: 97.6%
Amblyomma americanum; Group 3: 4.5% in DES, 3.0 mg/kg, Day 23
  % Reduction Ticks: 82.0%
Amblyomma americanum; Group 3: 4.5% in DES, 3.0 mg/kg, Day 30
  % Reduction Ticks: 70.0%
Amblyomma americanum; Group 3: 4.5% in DES, 3.0 mg/kg, Day 37
  % Reduction Ticks: 80.4%
Amblyomma americanum; Group 3: 4.5% in DES, 3.0 mg/kg, Day 44
  % Reduction Ticks: 56.0%
Amblyomma americanum; Group 4: 3.0% in DES, 2.0 mg/kg, Day 2
  % Reduction Ticks: 95.4%
Amblyomma americanum; Group 4: 3.0% in DES, 2.0 mg/kg, Day 9
  % Reduction Ticks: 100.0%
Amblyomma americanum; Group 4: 3.0% in DES, 2.0 mg/kg, Day 16
  % Reduction Ticks: 100.0%
Amblyomma americanum; Group 4: 3.0% in DES, 2.0 mg/kg, Day 23
  % Reduction Ticks: 79.5%
Amblyomma americanum; Group 4: 3.0% in DES, 2.0 mg/kg, Day 30
  % Reduction Ticks: 90.3%
Amblyomma americanum; Group 4: 3.0% in DES, 2.0 mg/kg, Day 37
  % Reduction Ticks: 57.1%
Amblyomma americanum; Group 4: 3.0% in DES, 2.0 mg/kg, Day 44
  % Reduction Ticks: 38.8%
Amblyomma americanum; Group 5: 6.0% in DES+9% lauryl lactate, 4.0 mg/kg, Day 2
  % Reduction Ticks: 100.0%
Amblyomma americanum; Group 5: 6.0% in DES+9% lauryl lactate, 4.0 mg/kg, Day 9
  % Reduction Ticks: 100.0%
Amblyomma americanum; Group 5: 6.0% in DES+9% lauryl lactate, 4.0 mg/kg, Day 16
  % Reduction Ticks: 100.0%
Amblyomma americanum; Group 5: 6.0% in DES+9% lauryl lactate, 4.0 mg/kg, Day 23
  % Reduction Ticks: 94.3%
Amblyomma americanum; Group 5: 6.0% in DES+9% lauryl lactate, 4.0 mg/kg, Day 30
  % Reduction Ticks: 100.0%
Amblyomma americanum; Group 5: 6.0% in DES+9% lauryl lactate, 4.0 mg/kg, Day 37
  % Reduction Ticks: 89.0%
Amblyomma americanum; Group 5: 6.0% in DES+9% lauryl lactate, 4.0 mg/kg, Day 44
  % Reduction Ticks: 84.8%
Amblyomma americanum; Group 6: 4.5% in DES+9% lauryl lactate, 3.0 mg/kg, Day 2
  % Reduction Ticks: 98.4%
Amblyomma americanum; Group 6: 4.5% in DES+9% lauryl lactate, 3.0 mg/kg, Day 9
  % Reduction Ticks: 100.0%
Amblyomma americanum; Group 6: 4.5% in DES+9% lauryl lactate, 3.0 mg/kg, Day 16
  % Reduction Ticks: 100.0%
Amblyomma americanum; Group 6: 4.5% in DES+9% lauryl lactate, 3.0 mg/kg, Day 23
  % Reduction Ticks: 93.1%
Amblyomma americanum; Group 6: 4.5% in DES+9% lauryl lactate, 3.0 mg/kg, Day 30
  % Reduction Ticks: 92.1%
Amblyomma americanum; Group 6: 4.5% in DES+9% lauryl lactate, 3.0 mg/kg, Day 37
  % Reduction Ticks: 89.0%
Amblyomma americanum; Group 6: 4.5% in DES+9% lauryl lactate, 3.0 mg/kg, Day 44
  % Reduction Ticks: 53.6%
Amblyomma americanum; Group 7: 3.0% in DES+9% lauryl lactate, 2.0 mg/kg, Day 2
  % Reduction Ticks: 98.4%
Amblyomma americanum; Group 7: 3.0% in DES+9% lauryl lactate, 2.0 mg/kg, Day 9
  % Reduction Ticks: 100.0%
Amblyomma americanum; Group 7: 3.0% in DES+9% lauryl lactate, 2.0 mg/kg, Day 16
  % Reduction Ticks: 100.0%
Amblyomma americanum; Group 7: 3.0% in DES+9% lauryl lactate, 2.0 mg/kg, Day 23
  % Reduction Ticks: 80.6%
Amblyomma americanum; Group 7: 3.0% in DES+9% lauryl lactate, 2.0 mg/kg, Day 30
  % Reduction Ticks: 88.9%
Amblyomma americanum; Group 7: 3.0% in DES+9% lauryl lactate, 2.0 mg/kg, Day 37
  % Reduction Ticks: 74.6%
Amblyomma americanum; Group 7: 3.0% in DES+9% lauryl lactate, 2.0 mg/kg, Day 44
  % Reduction Ticks: 42.4%
Amblyomma americanum; Treatment Group 2 (4.0 mg/kg in DES alone), through Week 3
  efficacy against ticks: at least 90%
Amblyomma americanum; Treatment Groups 5 and 6 (4.0 and 3.0 mg/kg in DES+LL), through five weeks
  efficacy against ticks: at least 90%
